Reference: patent publication US10538554B2, “Peptides and uses therefor as antiviral agents” (priority 2015, dated 2020)
Bridge positions count the residues as written; N and C are the ends. Square brackets hold non-standard residues; d marks the D form. Peptide text beside a SMILES is read from it.

Experiments:
[1] = system: H1N1 A/NY/18/2009; conditions: A/NY/18/2009, 48 h, 10 μM
[2] = system: H3N8 A/Miami/2/63; conditions: A/Miami/2/63, 48 h, 10 μM
[3] = system: H9N2 A/Iran/16/2000; conditions: 48 h, 10 μM
[4] = system: H1N1 A1/Malaysia/302/1954; conditions: A1/Malaysia/302/1954, 48 h, 10 μM
[5] = system: H1N1 A/PR/8/1934; conditions: A/PR/8/1934, 48 h, 10 μM
[6] = system: H3N2 A/HK/8/1968; conditions: A/HK/8/1968, 48 h, 10 μM

SMILES	% Inhibition Pdm 2009 [1] [%]	% inhibition H3N8 [2] [%]	% inhibition H9N2 [3] [%]	% inhibition H1N1 [4] [%]	% Inhibition PR/8 [5] [%]	% inhibition H3N2 [6] [%]
CC[C@@H](C)[C@H]1NC(=O)[C@@H](Cc2ccccc2)NC(=O)[C@@H](CS)NC(=O)[C@@H](Cc2ccccc2)NC(=O)[C@@H](Cc2c[nH]c3ccccc23)NC(=O)[C@@H]([C@H](C)O)NC(=O)[C@H](NC(=O)[C@H](CCCCN)NC(=O)[C@H](CCCCN)NC(=O)[C@H](CCCNC(=N)N)NC(=O)[C@@H](N)CCCNC(=N)N)CSSC[C@H](C(=O)O)NC(=O)[C@@H](CC(N)=O)NC1=O [PSP IV A2, H-RRKKctwfcfinc-OH] (H-RRKK[dC][dT][dW][dF][dC][dF][dI][dN][dC]-OH; disulfide 5-13)	68	76	64	60	68	82
CC[C@@H](C)[C@H]1NC(=O)[C@@H](Cc2ccccc2)NC(=O)[C@@H](CC(=O)O)NC(=O)[C@@H](Cc2ccccc2)NC(=O)[C@@H](Cc2c[nH]c3ccccc23)NC(=O)[C@@H]([C@H](C)O)NC(=O)[C@H](NC(=O)[C@H](CCCCN)NC(=O)[C@H](CCCCN)NC(=O)[C@H](CCCNC(=N)N)NC(=O)[C@@H](N)CCCNC(=N)N)CSSC[C@H](C(=O)O)NC(=O)[C@@H](CC(N)=O)NC1=O [PSP IV A3, H-RRKKctwfdfinc-OH] (H-RRKK[dC][dT][dW][dF][dD][dF][dI][dN][dC]-OH; disulfide 5-13)	72	59	30	49		
CC[C@@H](C)[C@H]1NC(=O)[C@@H](Cc2ccccc2)NC(=O)[C@@H](CCC(=O)O)NC(=O)[C@@H](Cc2ccccc2)NC(=O)[C@@H](Cc2c[nH]c3ccccc23)NC(=O)[C@@H]([C@H](C)O)NC(=O)[C@H](NC(=O)[C@H](CCCCN)NC(=O)[C@H](CCCCN)NC(=O)[C@H](CCCNC(=N)N)NC(=O)[C@@H](N)CCCNC(=N)N)CSSC[C@H](C(=O)O)NC(=O)[C@@H](CC(N)=O)NC1=O [PSP IV A4, H-RRKKctwfefinc-OH] (H-RRKK[dC][dT][dW][dF][dE][dF][dI][dN][dC]-OH; disulfide 5-13)	45	72	53	62		
CC[C@@H](C)[C@H]1NC(=O)[C@@H](Cc2ccccc2)NC(=O)CNC(=O)[C@@H](Cc2ccccc2)NC(=O)[C@@H](Cc2c[nH]c3ccccc23)NC(=O)[C@@H]([C@H](C)O)NC(=O)[C@H](NC(=O)[C@H](CCCCN)NC(=O)[C@H](CCCCN)NC(=O)[C@H](CCCNC(=N)N)NC(=O)[C@@H](N)CCCNC(=N)N)CSSC[C@H](C(=O)O)NC(=O)[C@@H](CC(N)=O)NC1=O [PSP IV A6, H-RRKKctwfGfinc-OH] (H-RRKK[dC][dT][dW][dF]G[dF][dI][dN][dC]-OH; disulfide 5-13)	47	57	35	59		
CC[C@@H](C)[C@H]1NC(=O)[C@@H](Cc2ccccc2)NC(=O)[C@@H](Cc2c[nH]cn2)NC(=O)[C@@H](Cc2ccccc2)NC(=O)[C@@H](Cc2c[nH]c3ccccc23)NC(=O)[C@@H]([C@H](C)O)NC(=O)[C@H](NC(=O)[C@H](CCCCN)NC(=O)[C@H](CCCCN)NC(=O)[C@H](CCCNC(=N)N)NC(=O)[C@@H](N)CCCNC(=N)N)CSSC[C@H](C(=O)O)NC(=O)[C@@H](CC(N)=O)NC1=O [PSP IV A7, H-RRKKctwfhfinc-OH] (H-RRKK[dC][dT][dW][dF][dH][dF][dI][dN][dC]-OH; disulfide 5-13)	71	79	65	68	73	80
CC[C@@H](C)[C@H]1NC(=O)[C@@H](Cc2ccccc2)NC(=O)[C@@H]([C@H](C)CC)NC(=O)[C@@H](Cc2ccccc2)NC(=O)[C@@H](Cc2c[nH]c3ccccc23)NC(=O)[C@@H]([C@H](C)O)NC(=O)[C@H](NC(=O)[C@H](CCCCN)NC(=O)[C@H](CCCCN)NC(=O)[C@H](CCCNC(=N)N)NC(=O)[C@@H](N)CCCNC(=N)N)CSSC[C@H](C(=O)O)NC(=O)[C@@H](CC(N)=O)NC1=O [PSP IV A8, H-RRKKctwfifinc-OH] (H-RRKK[dC][dT][dW][dF][dI][dF][dI][dN][dC]-OH; disulfide 5-13)	95	96	92	92	97	96
CC[C@@H](C)[C@H]1NC(=O)[C@@H](Cc2ccccc2)NC(=O)[C@@H](CCCCN)NC(=O)[C@@H](Cc2ccccc2)NC(=O)[C@@H](Cc2c[nH]c3ccccc23)NC(=O)[C@@H]([C@H](C)O)NC(=O)[C@H](NC(=O)[C@H](CCCCN)NC(=O)[C@H](CCCCN)NC(=O)[C@H](CCCNC(=N)N)NC(=O)[C@@H](N)CCCNC(=N)N)CSSC[C@H](C(=O)O)NC(=O)[C@@H](CC(N)=O)NC1=O [PSP IV A9, H-RRKKctwfkfinc-OH] (H-RRKK[dC][dT][dW][dF][dK][dF][dI][dN][dC]-OH; disulfide 5-13)	66	79	39	56	74	73
CC[C@@H](C)[C@H]1NC(=O)[C@@H](Cc2ccccc2)NC(=O)[C@@H](CC(C)C)NC(=O)[C@@H](Cc2ccccc2)NC(=O)[C@@H](Cc2c[nH]c3ccccc23)NC(=O)[C@@H]([C@H](C)O)NC(=O)[C@H](NC(=O)[C@H](CCCCN)NC(=O)[C@H](CCCCN)NC(=O)[C@H](CCCNC(=N)N)NC(=O)[C@@H](N)CCCNC(=N)N)CSSC[C@H](C(=O)O)NC(=O)[C@@H](CC(N)=O)NC1=O [PSP IV A10, H-RRKKctwflfinc-OH] (H-RRKK[dC][dT][dW][dF][dL][dF][dI][dN][dC]-OH; disulfide 5-13)	85	96	97	90	96	96
CC[C@@H](C)[C@H]1NC(=O)[C@@H](Cc2ccccc2)NC(=O)[C@@H](CCSC)NC(=O)[C@@H](Cc2ccccc2)NC(=O)[C@@H](Cc2c[nH]c3ccccc23)NC(=O)[C@@H]([C@H](C)O)NC(=O)[C@H](NC(=O)[C@H](CCCCN)NC(=O)[C@H](CCCCN)NC(=O)[C@H](CCCNC(=N)N)NC(=O)[C@@H](N)CCCNC(=N)N)CSSC[C@H](C(=O)O)NC(=O)[C@@H](CC(N)=O)NC1=O [PSP IV A11, H-RRKKctwfmfinc-OH] (H-RRKK[dC][dT][dW][dF][dM][dF][dI][dN][dC]-OH; disulfide 5-13)	88	93	84	89	85	90
CC[C@@H](C)[C@H]1NC(=O)[C@@H](Cc2ccccc2)NC(=O)[C@@H](CC(N)=O)NC(=O)[C@@H](Cc2ccccc2)NC(=O)[C@@H](Cc2c[nH]c3ccccc23)NC(=O)[C@@H]([C@H](C)O)NC(=O)[C@H](NC(=O)[C@H](CCCCN)NC(=O)[C@H](CCCCN)NC(=O)[C@H](CCCNC(=N)N)NC(=O)[C@@H](N)CCCNC(=N)N)CSSC[C@H](C(=O)O)NC(=O)[C@@H](CC(N)=O)NC1=O [PSP IV A12, H-RRKKctwfnfinc-OH] (H-RRKK[dC][dT][dW][dF][dN][dF][dI][dN][dC]-OH; disulfide 5-13)	60	56	48	67		
CC[C@@H](C)[C@H]1NC(=O)[C@@H](Cc2ccccc2)NC(=O)[C@H]2CCCN2C(=O)[C@@H](Cc2ccccc2)NC(=O)[C@@H](Cc2c[nH]c3ccccc23)NC(=O)[C@@H]([C@H](C)O)NC(=O)[C@H](NC(=O)[C@H](CCCCN)NC(=O)[C@H](CCCCN)NC(=O)[C@H](CCCNC(=N)N)NC(=O)[C@@H](N)CCCNC(=N)N)CSSC[C@H](C(=O)O)NC(=O)[C@@H](CC(N)=O)NC1=O [PSP IV A13, H-RRKKctwfpfinc-OH] (H-RRKK[dC][dT][dW][dF][dP][dF][dI][dN][dC]-OH; disulfide 5-13)	65	69	55	52	66	74
CC[C@@H](C)[C@H]1NC(=O)[C@@H](Cc2ccccc2)NC(=O)[C@@H](CCC(N)=O)NC(=O)[C@@H](Cc2ccccc2)NC(=O)[C@@H](Cc2c[nH]c3ccccc23)NC(=O)[C@@H]([C@H](C)O)NC(=O)[C@H](NC(=O)[C@H](CCCCN)NC(=O)[C@H](CCCCN)NC(=O)[C@H](CCCNC(=N)N)NC(=O)[C@@H](N)CCCNC(=N)N)CSSC[C@H](C(=O)O)NC(=O)[C@@H](CC(N)=O)NC1=O [PSP IV A14, H-RRKKctwfqfinc-OH] (H-RRKK[dC][dT][dW][dF][dQ][dF][dI][dN][dC]-OH; disulfide 5-13)	74	83	68	66	77	83
CC[C@@H](C)[C@H]1NC(=O)[C@@H](Cc2ccccc2)NC(=O)[C@@H](CO)NC(=O)[C@@H](Cc2ccccc2)NC(=O)[C@@H](Cc2c[nH]c3ccccc23)NC(=O)[C@@H]([C@H](C)O)NC(=O)[C@H](NC(=O)[C@H](CCCCN)NC(=O)[C@H](CCCCN)NC(=O)[C@H](CCCNC(=N)N)NC(=O)[C@@H](N)CCCNC(=N)N)CSSC[C@H](C(=O)O)NC(=O)[C@@H](CC(N)=O)NC1=O [PSP IV A16, H-RRKKctwfsfinc-OH] (H-RRKK[dC][dT][dW][dF][dS][dF][dI][dN][dC]-OH; disulfide 5-13)	81	93	89	91	78	96
